# Measurements as given in patent US10000438B2, “Small molecule inhibitors of TRPA1” (B.R.A.I.N. Biotechnology Research and Information Network AG, priority 2011, dated 2018).
# Where two headings read alike, the source gives them in different places.
# Key:
# TRPA1 [1] = biological target: T1, TRPA1 (Homo sapiens, UniProt O75762); experiment: Cell-based calcium assay (Fluo-4 fluorescence) in HEK293 cells expressing recombinant human TRPA1; design: expressed in transfected cells
# Method: The HEK293 cell line expressing recombinant human TRPA1 under the control of a tetracycline-regulated promoter was used in this assay (cf. example 2). Functional modulation of TRPA1 by the tested compounds was measured and quantified using the calcium sensitive fluorescent probe […] on a fluorescence microplate reader. Activation of TRPA1 by an agonist led to an increase in the intracellular calcium concentration and thus an increase in fluorescence intensity.
# Procedure: Cells were cultured in DMEM (high glucose) supplemented with tetracycline-free FCS (10% v/v), L-glutamine (4 mM), blasticidin (15 μg/ml) and hygromycin (100 μg/mL) in a water-saturated atmosphere at 37° C. and 5% CO2. Cells were seeded onto 96-well clear-bottom black-walled assay plates at a density of 70,000 cells per well in 100 μl of cell culture medium. Expression of the ion channel was induced or not induced by addition of tetracycline (1 μg/ml final concentration) to the cell culture medium (while seeding the cells). Calcium influx into the living cells due to channel activation was monitored 24 h later using the calcium sensitive fluorescent probe […] on a fluorescence microplate reader (FlexStation® system, Molecular Devices). Therefore 100 μl Krebs-HEPES (KH) buffer (118 mM NaCl; 4.7 mM KCl; 1.3 mM CaCl2; 1.2 mM MgSO4; 1.2 mM KH2PO4; 4.2 mM NaHCO3; 10 mM Hepes, pH 7.4) supplemented with sulfinpyrazone (250 μM) and […] (4 μM) were added and the cells were incubated for an additional hour in a water-saturated atmosphere at 37° C. and 5% CO2.
# Measurement of agonistic activity: Medium was replaced with 200 μl KH buffer supplemented with sulfinpyrazone (250 μM). Subsequently, 50 μl KH buffer supplemented with the agonists or control substances were added. Changes in fluorescence were recorded at 20-26° C.
# Measurement of antagonistic activity (screening): Medium was replaced with 150 μl KH buffer supplemented with sulfinpyrazone (250 μM). Subsequently, 50 μl KH buffer supplemented with the screening compounds (50 μM; leading to a final concentration of 10 μM under measurement conditions) or control substances were added and the cells were incubated for 10 min. under assay conditions in the microplate reader. Changes in fluorescence were recorded at 20-26° C. after addition of 50 μl KH buffer supplemented with the TRPA1 agonist menthol (175 μM; leading to a final concentration of 35 μM under measurement conditions). The published TRPA1 antagonist AP-18 (Petrus, 2007) was used as a control for TRPA1-specific […] activity. Subsequently, the inventive compounds were tested for their capacity to reduce signals triggered by addition of propylparaben (EC80=80 μM), retinol (EC80=150 μM), and allyl isothiocyanate (EC80=5 μM) (cf. Table 2).
# Analysis: Calcium mobilization was quantified as the change of peak fluorescence (ΔF) over the baseline level (F). The data was analyzed with the software of the microplate reader. Potential TRPA1 antagonists were tested in an effective range of 0.1-50 μM for their capacity to reduce the menthol-evoked signal.
# TRPA1 [2] = biological target: T1, TRPA1; experiment: Blinded in vivo study on the lid-cheek junction, stinging/burning induced by flufenamic acid; design: from tissue; host or cells: facial skin (lid-cheek junction) of human volunteers; settings: compound 0.05% pre-incubated on one side of face, placebo on other; flufenamic acid 0.75%; 16 persons, two felt no stimulus
# Method: Antagonistic in vivo activity at TRPA1 was tested in a blinded study on the lid-cheek junction of 16 test persons. The ion channel was stimulated using a known TRPA1 agonist: flufenamic acid, a member of the group of NSAIDs (non-steroidal anti-inflammatory drugs) (Hu et al., 2010). The concentration of flufenamic acid was adjusted to a level that induced a pronounced stinging/burning sensation in the majority of the testers (0.75%).
# Procedure: One side of the face (the lid-cheek junction) was pre-incubated with the antagonist (compound I.3, 0.05%)—the other side with placebo. Afterwards, flufenamic acid was applied to both sides simultaneously. Testers were asked several questions regarding their individual perception of irritation.
# Analysis: Testers were asked if they could feel the NSAID-triggered stinging/burning. The strength of the stimulus was not judged. Then they were asked if they could perceive a difference between the two areas. If the answer was yes, they were asked which side was perceived as more pleasant. The antagonistic effect was graded in three categories: no reduction, reduction and strong reduction of the irritation. 10 out of 14 testers perceived a soothing effect by the use of the antagonist (two individuals felt no stimulus at all).
# human TRPM8 = biological target: T2, human TRPM8 (Homo sapiens, UniProt Q7Z2W7); experiment: Test for cross-selectivity on TRPM8: calcium assay in HEK293 cells expressing recombinant human TRPM8; format: cell-based
# T2 construct: expressed in transfected cells; host or cells: HEK293 (tetracycline-regulated promoter)
# Method: The test for cross-selectivity of the compounds on TRPM8 was performed in much the same way as the initial screening on TRPA1 (described in example 3). A HEK293 cell line expressing recombinant human TRPM8 under the control of a tetracycline-regulated promoter was used. Cells were cultured under the conditions mentioned in example 3. Functional modulation of TRPM8 was measured and quantified using the calcium sensitive fluorescent probe Fluo-4 AM on a fluorescence microplate reader. The assay was performed as described in example 3. Changes in fluorescence were recorded at 26-30° C. after addition of the compounds and/or the TRPM8 agonist menthol (EC80=12 μM). Dose-response curves are shown in FIGS. 5 to 9 (calcium assay) against menthol, which is known to trigger both TRPA1 as well as TRPM8. In particular, the antagonistic activity of compound I.3, II.3, III.3, IV.3 and V.3 at TRPA1 (open circles, continuous line) as well as the antagonistic activity of said compounds at TRPM8 (filled squares, dotted line) was measured and compared. Activation of the two ion channels was triggered by addition of menthol (EC80[TRPA1]=35 μM and EC80[TRPM8]=12 μM). The receptor signals were normalized to the pure menthol signal in each case.
# TRPA1 [3] = biological target: T1, TRPA1; experiment: Cell-based (label-free) impedance assay in HaCaT cells
# [4] = agonist allyl isothiocyanate at EC80 (5 μM), read-out: Antagonistic activity (IC50) against Allyl isothiocyanate
# [5] = agonist menthol at EC80 (35 μM final), read-out: Antagonistic activity (IC50) against Menthol
# [6] = agonist propylparaben at EC80 (80 μM), read-out: Antagonistic activity (IC50) against Propylparaben
# [7] = agonist retinol at EC80 (150 μM), read-out: Antagonistic activity (IC50) against Retinol
# T1 sequence (O75762 whole entry): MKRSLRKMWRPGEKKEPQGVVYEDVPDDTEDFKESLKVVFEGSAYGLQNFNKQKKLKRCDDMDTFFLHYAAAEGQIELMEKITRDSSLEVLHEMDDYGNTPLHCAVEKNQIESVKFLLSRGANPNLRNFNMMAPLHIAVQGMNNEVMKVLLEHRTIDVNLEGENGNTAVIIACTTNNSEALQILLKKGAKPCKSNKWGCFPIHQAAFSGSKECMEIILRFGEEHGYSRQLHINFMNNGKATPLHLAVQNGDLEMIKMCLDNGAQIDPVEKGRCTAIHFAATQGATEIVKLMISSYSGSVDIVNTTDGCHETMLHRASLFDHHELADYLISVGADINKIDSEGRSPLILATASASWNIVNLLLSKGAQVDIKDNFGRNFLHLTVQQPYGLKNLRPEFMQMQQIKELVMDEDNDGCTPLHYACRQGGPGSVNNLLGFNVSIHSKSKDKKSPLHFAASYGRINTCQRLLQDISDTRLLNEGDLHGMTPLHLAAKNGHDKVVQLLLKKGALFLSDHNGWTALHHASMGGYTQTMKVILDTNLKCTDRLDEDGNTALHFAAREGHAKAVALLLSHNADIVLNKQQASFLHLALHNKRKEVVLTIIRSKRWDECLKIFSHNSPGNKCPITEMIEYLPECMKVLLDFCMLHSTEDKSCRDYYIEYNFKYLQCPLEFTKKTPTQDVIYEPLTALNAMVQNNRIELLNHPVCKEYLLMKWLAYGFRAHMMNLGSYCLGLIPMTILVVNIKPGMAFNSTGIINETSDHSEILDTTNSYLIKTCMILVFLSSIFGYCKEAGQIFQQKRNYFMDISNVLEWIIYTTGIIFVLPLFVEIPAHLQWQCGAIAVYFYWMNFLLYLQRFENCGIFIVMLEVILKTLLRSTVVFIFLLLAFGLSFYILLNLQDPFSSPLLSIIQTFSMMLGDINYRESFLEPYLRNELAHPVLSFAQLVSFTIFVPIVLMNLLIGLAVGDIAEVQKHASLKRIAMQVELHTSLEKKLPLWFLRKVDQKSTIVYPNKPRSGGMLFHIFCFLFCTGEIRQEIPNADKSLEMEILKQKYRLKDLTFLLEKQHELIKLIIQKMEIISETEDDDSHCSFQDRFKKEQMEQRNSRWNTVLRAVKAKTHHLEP
# T2 sequence (Q7Z2W7 whole entry): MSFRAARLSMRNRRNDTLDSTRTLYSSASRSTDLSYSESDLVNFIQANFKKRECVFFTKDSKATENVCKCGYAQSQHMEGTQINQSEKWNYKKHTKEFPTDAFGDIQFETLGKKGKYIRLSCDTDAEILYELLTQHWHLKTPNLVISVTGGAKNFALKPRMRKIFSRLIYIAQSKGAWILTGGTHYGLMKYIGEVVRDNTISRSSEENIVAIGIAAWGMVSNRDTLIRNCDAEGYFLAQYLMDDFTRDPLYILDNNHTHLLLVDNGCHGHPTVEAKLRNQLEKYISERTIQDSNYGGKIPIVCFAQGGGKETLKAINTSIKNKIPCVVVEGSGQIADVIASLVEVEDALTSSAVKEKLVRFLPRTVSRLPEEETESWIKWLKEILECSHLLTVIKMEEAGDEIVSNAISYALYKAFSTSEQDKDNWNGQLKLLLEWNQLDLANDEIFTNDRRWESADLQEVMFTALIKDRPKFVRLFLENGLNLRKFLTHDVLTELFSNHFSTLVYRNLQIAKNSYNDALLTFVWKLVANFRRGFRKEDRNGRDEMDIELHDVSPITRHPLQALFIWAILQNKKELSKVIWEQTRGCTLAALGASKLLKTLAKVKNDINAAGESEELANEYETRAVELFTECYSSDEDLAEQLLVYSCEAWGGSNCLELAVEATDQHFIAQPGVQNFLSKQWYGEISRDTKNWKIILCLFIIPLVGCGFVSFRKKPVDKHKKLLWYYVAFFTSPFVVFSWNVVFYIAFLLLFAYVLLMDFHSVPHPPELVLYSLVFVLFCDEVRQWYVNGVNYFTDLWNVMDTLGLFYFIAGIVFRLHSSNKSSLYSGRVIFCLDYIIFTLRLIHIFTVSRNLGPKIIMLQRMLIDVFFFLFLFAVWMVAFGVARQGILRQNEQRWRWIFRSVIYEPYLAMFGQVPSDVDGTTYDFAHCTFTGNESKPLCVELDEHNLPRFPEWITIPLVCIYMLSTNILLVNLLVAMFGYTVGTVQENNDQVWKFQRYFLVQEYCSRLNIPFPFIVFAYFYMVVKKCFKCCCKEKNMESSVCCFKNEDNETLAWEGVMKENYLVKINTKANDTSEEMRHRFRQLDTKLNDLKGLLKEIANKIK
SMILES,IC50 (TRPA1 [1]; [4]) [µM],IC50 (TRPA1 [1]; [5]) [µM],IC50 (TRPA1 [1]; [6]) [µM],IC50 (TRPA1 [1]; [7]) [µM],Testers who perceived a soothing effect by the use of the antagonist (TRPA1 [2]),Agonistic efficacy at TRPA1 (EC80) (TRPA1 [3]) [µM],Agonistic efficacy at TRPA1 (EC80) (TRPA1 [1]) [µM],Agonistic efficacy at TRPM8 (EC80) (human TRPM8) [µM]
Cc1cc(/C=C2\C(=N)N3N=C(CC(=O)N4CCCC4)SC3=NC2=O)c(C)n1-c1cccc(Cl)c1 [Compound IV.3],3.5,0.3,4.3,3.3,–,–,–,–
CC(C)c1ccc2c(c1)CCC1[C@](C)(C(=O)O)CCC[C@]21C (some centres unmarked) [Compound V.3],26,4.5,26,14,–,–,–,–
"C=CCN=C=S [allyl isothiocyanate, reference compound]",–,–,–,–,–,–,5,–
"CC1CCC(C(C)C)C(O)C1 (centres unmarked) [menthol, 2-isopropyl-5-methyl-cyclohexanol, reference compound]",–,–,–,–,–,–,35,12
"CC1=C(/C=C/C(C)=C/C=C/C(C)=C/CO)C(C)(C)CCC1 [retinol, reference compound]",–,–,–,–,–,–,150,–

# Further lines, with some results ahead:
IC50 (TRPA1 [1]; [4]) [µM],IC50 (TRPA1 [1]; [5]) [µM],IC50 (TRPA1 [1]; [6]) [µM],IC50 (TRPA1 [1]; [7]) [µM],Testers who perceived a soothing effect by the use of the antagonist (TRPA1 [2]),Agonistic efficacy at TRPA1 (EC80) (TRPA1 [3]) [µM],SMILES,Agonistic efficacy at TRPA1 (EC80) (TRPA1 [1]) [µM],Agonistic efficacy at TRPM8 (EC80) (human TRPM8) [µM]
2.5,3.5,4.7,3.4,10 out of 14,–,COc1cc(C(=O)OC2CC3CCC2(C)C3(C)C)ccc1OC(C)=O (centres unmarked) [Compound I.3],–,–
1.2,0.1,0.4,0.4,–,–,COC(=O)c1ccc(/C=C(\C#N)C(=O)Nc2ccccc2F)cc1 [Compound III.3],–,–
–,–,–,–,–,200,"CCCOC(=O)c1ccc(O)cc1 [propylparaben, reference compound]",80,–
